Columns and labels:
[1] = system: SK-MEL-5 melanoma cell line; test: NCI five-dose testing; type: cell-based; conditions: Homo sapiens
Protocol: (§1) Screening against the cancer cell lines was carried out at the National Cancer Institute (NCI, Bethesda, Maryland, USA) applying the standard protocol of the NCI[22].

[2] = system: K-562 leukaemia cell line; test: NCI five-dose testing; type: cell-based; conditions: Homo sapiens
Protocol: as §1

[3] = system: OVCAR-4 ovarian cancer cell line; test: NCI five-dose testing; type: cell-based; conditions: Homo sapiens
Protocol: as §1

[4] = system: A498 renal cancer cell line; test: NCI five-dose testing; type: cell-based; conditions: Homo sapiens
Protocol: as §1

[5] = system: HOP-92 non-small cell lung cancer cell line; test: NCI five-dose testing; type: cell-based; conditions: Homo sapiens
Protocol: as §1

[6] = system: MDA-MB-468 breast cancer cell line; test: NCI five-dose testing; type: cell-based; conditions: Homo sapiens
Protocol: as §1

[7] = system: U251 CNS cancer cell line; test: NCI five-dose testing; type: cell-based; conditions: Homo sapiens
Protocol: as §1

[8] = system: HT-29 colon cancer cell line; test: NCI five-dose testing; type: cell-based; conditions: Homo sapiens
Protocol: as §1

[9] = system: PC-3 prostate cancer cell line; test: NCI five-dose testing; type: cell-based; conditions: Homo sapiens
Protocol: as §1

[10] = system: SF-295 CNS cancer cell line; test: NCI-60 single-dose screening; type: cell-based; conditions: Homo sapiens, read-out: per cent inhibition
Protocol: as §1
(§2) The final target compounds were submitted to the National Cancer Institute (NCI), Maryland, USA[23]. Thirty-one compounds were selected to be tested over 60 cell lines at single dose 10 µM.

[11] = system: HCC-116 colon cancer cell line; test: NCI-60 single-dose screening; type: cell-based; conditions: read-out: per cent inhibition
Protocol: as §1, §2

[12] = system: Colo 205 colon cancer cell line; test: NCI-60 single-dose screening; type: cell-based; conditions: Homo sapiens, read-out: per cent inhibition
Protocol: as §1, §2

[13] = system: prostate cancer cell lines; test: NCI five-dose testing, subpanel mean; type: cell-based; conditions: subpanel VIII: prostate cancer
Protocol: as §1

colon cancer cell lines = test: NCI five-dose testing, subpanel mean; type: cell-based; conditions: subpanel III: colon cancer
Protocol: as §1

CNS cancer cell lines = test: NCI five-dose testing, subpanel mean; type: cell-based; conditions: subpanel IV: CNS cancer
Protocol: as §1

renal cancer cell lines = test: NCI five-dose testing, subpanel mean; type: cell-based; conditions: subpanel VII: renal cancer
Protocol: as §1

[14] = system: non-small cell lung cancer cell lines; test: NCI five-dose testing, subpanel mean; type: cell-based; conditions: subpanel II: non-small cell lung cancer
Protocol: as §1

[15] = system: ovarian cancer cell lines; test: NCI five-dose testing, subpanel mean; type: cell-based; conditions: subpanel VI: ovarian cancer
Protocol: as §1

Leukaemia cell lines = test: NCI five-dose testing, subpanel mean; type: cell-based; conditions: subpanel I: Leukaemia
Protocol: as §1

melanoma cell lines = test: NCI five-dose testing, subpanel mean; type: cell-based; conditions: subpanel V: melanoma
Protocol: as §1

breast cancer cell lines = test: NCI five-dose testing, subpanel mean; type: cell-based; conditions: subpanel IX: breast cancer
Protocol: as §1

NCI-60 cell line panel = test: NCI-60 single-dose (10 µM) antiproliferative screening, mean over panel; type: cell-based; conditions: single-dose 10 µM
Protocol: as §1, §2

SR leukaemia cell line = test: NCI-60 single-dose screening; type: cell-based; conditions: 10 µM
Protocol: as §1, §2

[16] = system: HT29 colon cancer cell line; test: NCI-60 single-dose screening; type: cell-based; conditions: 10 µM
Protocol: as §1, §2

JNK1 = biological target: T1, JNK1 (Homo sapiens, UniProt P45983); test: In vitro kinase screening (Kinase HotSpot); type: biochemical; conditions: single dose of 10 µM
T1 construct: purchased Reaction Biology Corp
T1 sequence (P45983 whole entry): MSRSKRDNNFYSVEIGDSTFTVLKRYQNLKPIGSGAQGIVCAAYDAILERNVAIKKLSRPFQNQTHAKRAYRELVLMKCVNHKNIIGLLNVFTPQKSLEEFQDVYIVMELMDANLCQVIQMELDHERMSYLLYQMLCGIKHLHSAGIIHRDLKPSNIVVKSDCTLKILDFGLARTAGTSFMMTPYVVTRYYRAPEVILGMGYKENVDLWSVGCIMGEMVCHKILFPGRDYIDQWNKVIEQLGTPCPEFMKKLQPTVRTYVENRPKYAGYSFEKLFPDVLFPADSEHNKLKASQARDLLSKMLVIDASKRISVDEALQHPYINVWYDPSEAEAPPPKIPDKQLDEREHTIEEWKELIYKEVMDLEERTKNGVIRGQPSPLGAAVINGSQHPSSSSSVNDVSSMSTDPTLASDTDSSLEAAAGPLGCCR
Excerpt: (§3) To investigate the biological target of compound, Reaction Biology Corp. Kinase HotSpotSM service was used adopting standard assay protocol.

CDK2/cyclin E = biological target: T2, CDK2/cyclin E (Homo sapiens, UniProt P24941); test: In vitro kinase screening (Kinase HotSpot); type: biochemical; conditions: single dose of 10 µM
T2 construct: purchased Reaction Biology Corp
Excerpt: as §3

JNK3 = biological target: T3, JNK3 (Homo sapiens, UniProt P53779); test: In vitro kinase screening (Kinase HotSpot); type: biochemical; conditions: single dose of 10 µM
T3 construct: purchased Reaction Biology Corp
T3 sequence (P53779 whole entry): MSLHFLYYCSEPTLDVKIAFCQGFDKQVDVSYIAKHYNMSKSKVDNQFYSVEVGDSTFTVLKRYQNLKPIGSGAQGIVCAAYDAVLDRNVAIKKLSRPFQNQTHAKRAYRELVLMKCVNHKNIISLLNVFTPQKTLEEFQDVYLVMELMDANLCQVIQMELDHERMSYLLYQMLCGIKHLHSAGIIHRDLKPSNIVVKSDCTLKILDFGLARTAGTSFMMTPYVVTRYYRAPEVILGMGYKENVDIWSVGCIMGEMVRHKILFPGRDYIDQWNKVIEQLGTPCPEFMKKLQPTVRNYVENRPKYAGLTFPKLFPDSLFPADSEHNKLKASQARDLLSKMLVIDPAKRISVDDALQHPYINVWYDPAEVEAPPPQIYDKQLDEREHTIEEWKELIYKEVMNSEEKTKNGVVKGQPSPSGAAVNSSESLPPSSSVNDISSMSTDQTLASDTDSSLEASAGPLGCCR
Excerpt: as §3

BRAF = biological target: T4, BRAF (Homo sapiens, UniProt P15056); test: In vitro kinase screening (Kinase HotSpot); type: biochemical; conditions: single dose of 10 µM
T4 construct: purchased Reaction Biology Corp
T4 sequence (P15056 whole entry): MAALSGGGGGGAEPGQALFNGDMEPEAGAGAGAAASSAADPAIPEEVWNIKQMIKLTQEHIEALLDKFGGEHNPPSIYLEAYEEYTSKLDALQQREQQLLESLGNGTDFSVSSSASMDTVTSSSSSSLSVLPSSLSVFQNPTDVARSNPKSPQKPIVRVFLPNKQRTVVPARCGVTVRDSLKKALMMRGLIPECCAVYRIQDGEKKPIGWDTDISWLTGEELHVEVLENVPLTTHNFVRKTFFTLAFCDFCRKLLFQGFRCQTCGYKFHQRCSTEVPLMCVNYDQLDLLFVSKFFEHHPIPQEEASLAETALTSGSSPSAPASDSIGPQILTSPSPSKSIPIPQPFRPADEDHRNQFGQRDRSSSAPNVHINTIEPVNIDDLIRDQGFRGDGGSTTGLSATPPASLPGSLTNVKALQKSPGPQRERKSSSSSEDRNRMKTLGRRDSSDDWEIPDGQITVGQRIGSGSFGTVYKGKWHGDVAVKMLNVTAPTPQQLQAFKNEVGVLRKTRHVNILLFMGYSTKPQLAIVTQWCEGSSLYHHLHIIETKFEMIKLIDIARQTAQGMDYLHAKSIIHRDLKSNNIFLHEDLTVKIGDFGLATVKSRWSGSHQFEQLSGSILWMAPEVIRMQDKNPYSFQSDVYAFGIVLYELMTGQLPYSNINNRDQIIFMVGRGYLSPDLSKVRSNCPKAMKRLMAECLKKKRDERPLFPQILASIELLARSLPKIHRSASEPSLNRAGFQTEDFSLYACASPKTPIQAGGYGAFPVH
Excerpt: as §3

ROS/ROS1 = biological target: T5, ROS/ROS1 (Homo sapiens, UniProt P08922); test: In vitro kinase screening (Kinase HotSpot); type: biochemical; conditions: single dose of 10 µM
T5 construct: purchased Reaction Biology Corp
Excerpt: as §3

JNK2 = biological target: T6, JNK2 (Homo sapiens, UniProt P45984); test: In vitro kinase screening (Kinase HotSpot); type: biochemical; conditions: single dose of 10 µM
T6 construct: purchased Reaction Biology Corp
T6 sequence (P45984 whole entry): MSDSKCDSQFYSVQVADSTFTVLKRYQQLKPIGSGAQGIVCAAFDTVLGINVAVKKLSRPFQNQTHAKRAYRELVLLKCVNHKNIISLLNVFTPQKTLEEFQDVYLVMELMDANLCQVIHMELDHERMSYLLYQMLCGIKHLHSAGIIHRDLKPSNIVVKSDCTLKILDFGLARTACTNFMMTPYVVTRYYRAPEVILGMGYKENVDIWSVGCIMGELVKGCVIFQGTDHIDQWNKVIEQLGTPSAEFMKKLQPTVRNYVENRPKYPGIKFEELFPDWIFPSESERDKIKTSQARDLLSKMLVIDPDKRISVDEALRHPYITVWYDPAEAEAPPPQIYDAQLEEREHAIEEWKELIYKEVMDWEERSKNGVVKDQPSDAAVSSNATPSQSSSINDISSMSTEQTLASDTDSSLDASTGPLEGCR
Excerpt: as §3

GSK3b = biological target: T7, GSK3b (Homo sapiens, UniProt P49841); test: In vitro kinase screening (Kinase HotSpot); type: biochemical; conditions: single dose of 10 µM
T7 construct: purchased Reaction Biology Corp
T7 sequence (P49841 whole entry): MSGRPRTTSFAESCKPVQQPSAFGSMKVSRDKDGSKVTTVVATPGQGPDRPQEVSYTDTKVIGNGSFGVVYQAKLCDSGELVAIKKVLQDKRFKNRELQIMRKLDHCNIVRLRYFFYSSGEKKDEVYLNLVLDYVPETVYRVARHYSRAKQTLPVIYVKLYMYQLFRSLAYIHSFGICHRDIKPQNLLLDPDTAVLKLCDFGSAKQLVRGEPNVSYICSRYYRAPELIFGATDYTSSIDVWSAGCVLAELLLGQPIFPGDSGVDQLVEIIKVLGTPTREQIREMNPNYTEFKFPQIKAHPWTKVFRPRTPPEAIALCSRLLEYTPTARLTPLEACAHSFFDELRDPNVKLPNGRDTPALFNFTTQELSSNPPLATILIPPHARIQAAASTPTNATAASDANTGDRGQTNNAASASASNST
Excerpt: as §3

ABL1 (T315I) = biological target: T8, ABL1 (T315I) (Homo sapiens, UniProt P00519, T315I); test: In vitro kinase screening (Kinase HotSpot); type: biochemical; conditions: single dose of 10 µM
T8 construct: purchased Reaction Biology Corp
Excerpt: as §3

BRAF (V600E) = biological target: T9, BRAF (V600E) (Homo sapiens, UniProt P15056, V600E); test: In vitro kinase screening (Kinase HotSpot); type: biochemical; conditions: single dose of 10 µM, BRAF (V599E) in Table 6, BRAF (V600E) in text
T9 construct: purchased Reaction Biology Corp
T9 sequence (P15056 whole entry V600E): as the sequence (P15056 whole entry) above, with V600E counted along it
Excerpt: as §3

EGFR = biological target: T10, EGFR (Homo sapiens, UniProt P00533); test: In vitro kinase screening (Kinase HotSpot); type: biochemical; conditions: single dose of 10 µM
T10 construct: purchased Reaction Biology Corp
T10 sequence (P00533 25-1210): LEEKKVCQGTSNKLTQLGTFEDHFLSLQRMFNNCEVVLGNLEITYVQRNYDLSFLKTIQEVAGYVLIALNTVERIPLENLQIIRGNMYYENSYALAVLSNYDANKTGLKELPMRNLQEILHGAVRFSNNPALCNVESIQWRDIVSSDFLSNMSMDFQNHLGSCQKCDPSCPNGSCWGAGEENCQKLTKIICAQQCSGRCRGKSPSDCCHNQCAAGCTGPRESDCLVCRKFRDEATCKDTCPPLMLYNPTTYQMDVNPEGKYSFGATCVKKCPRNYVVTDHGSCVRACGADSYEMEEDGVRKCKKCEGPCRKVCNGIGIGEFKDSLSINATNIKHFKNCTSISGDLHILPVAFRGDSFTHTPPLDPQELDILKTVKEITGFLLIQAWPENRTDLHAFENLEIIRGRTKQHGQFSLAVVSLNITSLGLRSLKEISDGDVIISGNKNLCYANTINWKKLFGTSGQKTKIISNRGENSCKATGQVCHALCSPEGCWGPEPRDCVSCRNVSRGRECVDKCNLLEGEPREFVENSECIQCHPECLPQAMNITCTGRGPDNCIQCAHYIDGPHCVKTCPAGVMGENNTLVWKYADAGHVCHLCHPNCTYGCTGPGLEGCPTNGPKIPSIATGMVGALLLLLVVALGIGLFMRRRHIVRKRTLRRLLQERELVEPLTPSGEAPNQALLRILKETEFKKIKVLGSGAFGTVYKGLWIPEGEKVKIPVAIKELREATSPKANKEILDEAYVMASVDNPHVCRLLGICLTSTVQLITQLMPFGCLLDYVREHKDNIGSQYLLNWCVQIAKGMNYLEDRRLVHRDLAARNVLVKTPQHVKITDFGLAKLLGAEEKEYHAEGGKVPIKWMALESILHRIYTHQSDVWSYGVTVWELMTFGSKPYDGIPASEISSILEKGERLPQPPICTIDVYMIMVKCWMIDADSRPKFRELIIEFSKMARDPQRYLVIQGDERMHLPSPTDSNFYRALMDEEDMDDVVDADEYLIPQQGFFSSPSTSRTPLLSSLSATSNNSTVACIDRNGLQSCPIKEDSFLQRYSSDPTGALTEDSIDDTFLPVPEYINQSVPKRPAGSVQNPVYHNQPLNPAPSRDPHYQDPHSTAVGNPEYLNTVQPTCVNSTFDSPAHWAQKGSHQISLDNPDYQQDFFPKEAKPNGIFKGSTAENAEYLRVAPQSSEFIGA
Excerpt: as §3

P38a/MAPK14 = biological target: T11, P38a/MAPK14 (Homo sapiens, UniProt Q16539); test: In vitro kinase screening (Kinase HotSpot); type: biochemical; conditions: single dose of 10 µM, P38a/MAPK14
T11 construct: purchased Reaction Biology Corp
T11 sequence (Q16539 whole entry): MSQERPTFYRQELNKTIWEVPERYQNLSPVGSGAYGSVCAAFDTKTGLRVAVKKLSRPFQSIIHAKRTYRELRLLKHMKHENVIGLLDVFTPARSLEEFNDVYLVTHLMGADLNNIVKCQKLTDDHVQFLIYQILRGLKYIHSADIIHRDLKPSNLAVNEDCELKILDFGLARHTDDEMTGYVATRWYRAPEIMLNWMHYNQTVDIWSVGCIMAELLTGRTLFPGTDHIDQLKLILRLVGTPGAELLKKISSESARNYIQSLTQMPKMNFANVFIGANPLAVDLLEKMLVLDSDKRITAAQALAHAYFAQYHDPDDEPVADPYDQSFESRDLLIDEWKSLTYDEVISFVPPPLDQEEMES
Excerpt: as §3

IKKb/IKBKB = biological target: T12, IKKb/IKBKB (Homo sapiens, UniProt O14920); test: In vitro kinase screening (Kinase HotSpot); type: biochemical; conditions: single dose of 10 µM
T12 construct: purchased Reaction Biology Corp
T12 sequence (O14920 1-756): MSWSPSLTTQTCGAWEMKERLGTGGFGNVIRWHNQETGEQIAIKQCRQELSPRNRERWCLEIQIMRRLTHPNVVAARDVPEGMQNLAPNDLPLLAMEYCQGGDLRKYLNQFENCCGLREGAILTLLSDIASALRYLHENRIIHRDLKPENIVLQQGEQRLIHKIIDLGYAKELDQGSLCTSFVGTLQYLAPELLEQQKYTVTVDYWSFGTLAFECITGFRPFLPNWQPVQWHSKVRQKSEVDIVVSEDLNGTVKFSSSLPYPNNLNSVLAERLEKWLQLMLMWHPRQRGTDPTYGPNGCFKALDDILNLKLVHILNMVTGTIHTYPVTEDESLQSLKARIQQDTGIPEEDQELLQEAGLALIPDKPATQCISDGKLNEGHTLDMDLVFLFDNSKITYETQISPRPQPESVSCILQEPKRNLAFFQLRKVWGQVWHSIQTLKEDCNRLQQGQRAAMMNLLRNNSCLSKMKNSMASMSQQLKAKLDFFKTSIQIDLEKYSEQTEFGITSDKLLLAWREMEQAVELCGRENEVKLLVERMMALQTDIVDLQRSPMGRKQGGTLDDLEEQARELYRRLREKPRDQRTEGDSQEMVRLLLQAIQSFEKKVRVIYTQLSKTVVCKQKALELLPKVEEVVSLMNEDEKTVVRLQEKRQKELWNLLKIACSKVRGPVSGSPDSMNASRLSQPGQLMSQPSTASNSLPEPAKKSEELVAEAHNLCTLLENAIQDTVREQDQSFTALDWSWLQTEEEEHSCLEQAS
Excerpt: as §3

Compound `O=S(=O)(NCCCNc1cc(-c2cn(-c3ccccc3)nc2-c2cccc(O)c2)ccn1)c1ccc(Br)cc1` [Compound 2k, 4-Bromo-N-(3-((4-(3-(3-hydroxyphenyl)-1-phenyl-1H-pyrazol-4-yl)pyridin-2-yl)amino)propyl)benzenesulfonamide] has an IC50 ([1]; SK-MEL-5) of 1.27 µM, an LC50 (lethal concentration 50) ([1]; SK-MEL-5, read-out: LD50 (lethal dose 50)) of 5.3 µM and an IC (TGI) ([1]; SK-MEL-5, read-out: TGI (total growth inhibition concentration)) of 2.6 µM. For the same compound, the CC50 ([2]; K562, read-out: LD50 (lethal dose 50)) was over 100 µM, the IC50 ([2]; K562, K-562) was 0.44 µM and the IC (TGI) ([2]; K562, K-562, read-out: TGI (total growth inhibition concentration)) was 2.8 µM. For the same compound, the IC50 ([3]; OVCAR-4) was 1.66 µM, the LC50 (lethal concentration 50) ([3]; OVCAR-4, read-out: LD50 (lethal dose 50)) was over 100 µM and the IC (TGI) ([3]; OVCAR-4, read-out: TGI (total growth inhibition concentration)) was 8.6 µM. It also gave an IC50 ([4]; A498) of 0.38 µM, an LC50 (lethal concentration 50%) ([4]; A498, read-out: LD50 (lethal dose 50)) of 11.9 µM and an IC (TGI) ([4]; A498, read-out: TGI (total growth inhibition concentration)) of 2.8 µM. The IC50 ([5]; HOP-92) was 1.83 µM, the IC (TGI) ([5]; HOP-92, HOP-92, read-out: TGI (total growth inhibition concentration)) was 7.5 µM and the LD50 (lethal dose 50) ([5]; HOP-92, read-out: LD50 (lethal dose 50)) was over 100 µM. It also gave an IC50 ([6]; MDA-MB-468) of 1.54 µM, a CC50 ([6]; MDA-MB-468, read-out: LD50 (lethal dose 50)) of over 100 µM and an IC (TGI) ([6]; MDA-MB-468, read-out: TGI (total growth inhibition concentration)) of 5.6 µM. The CC50 ([7]; U-251, read-out: LD50 (lethal dose 50)) was 19.9 µM, the IC50 ([7]; U-251, U251, read-out: IC50) was 1.21 µM and the IC (TGI) ([7]; U-251, U251, read-out: TGI (total growth inhibition concentration)) was 4.4 µM. The CC50 ([8]; HT-29, read-out: LD50 (lethal dose 50)) was 7.1 µM, the IC50 ([8]; HT-29, read-out: IC50) was 0.63 µM and the IC (TGI) ([8]; HT-29, read-out: TGI (total growth inhibition concentration)) was 2.3 µM. For the same compound, the LC50 (lethal concentration 50) ([9]; PC-3, read-out: LD50 (lethal dose 50)) was over 100 µM, the IC50 ([9]; PC-3, read-out: IC50) was 2.11 µM and the IC (TGI) ([9]; PC-3, read-out: TGI (total growth inhibition concentration)) was 7.8 µM. It also gave an inhibition at 10 µM [10] of 147%, an inhibition at 10 µM [11] of 140% and an inhibition at 10 µM [12] of 168%. The IC50 [13] was 2.03 µM, the IC50 (colon cancer cell lines) was 1.48 µM and the IC50 (CNS cancer cell lines) was 1.7 µM. It also gave an IC50 (renal cancer cell lines) of 1.89 µM, an IC50 [14] of 1.96 µM and an IC50 [15] of 2.11 µM. The IC50 (Leukaemia cell lines) was 1.55 µM, the IC50 (melanoma cell lines) was 1.62 µM and the IC50 (breast cancer cell lines) was 1.11 µM. For the same compound, the inhibition at 10 µM (NCI-60 cell line panel; 60-cancer cell line screening) was 90.6% and the “number of cell lines with more than 100% inhibition” value (NCI-60 cell line panel; NCI-60 panel) was 13.

`COc1cccc(-c2nn(-c3ccccc3)cc2-c2ccnc(NCCCNS(=O)(=O)c3ccc(Cl)cc3)c2)c1` [Compound 2c, 4-Chloro-N-(3-((4-(3-(3-methoxyphenyl)-1-phenyl-1H-pyrazol-4-yl)pyridin-2-yl)amino)propyl) benzenesulfonamide] showed a per cent inhibition (SR leukaemia cell line) of 92.74%, a per cent inhibition [16] of 88.66% and an Inhibition % (JNK1) of 69.19 ± 0.02%. For the same compound, the Inhibition % (CDK2/cyclin E) was 9.80 ± 1.01%, the Inhibition % (JNK3) was 24.23 ± 0.03% and the Inhibition % (BRAF) was 20.87 ± 0.30%. For the same compound, the Inhibition % (ROS/ROS1) was 3.40 ± 0.39%, the Inhibition % (JNK2) was 59.68 ± 0.01% and the Inhibition % (GSK3b) was 49.31 ± 0.30%. For the same compound, the Inhibition % (ABL1 (T315I)) was 4.53 ± 0.45%, the Inhibition % (BRAF (V600E)) was 44.20 ± 0.40% and the Inhibition % (EGFR) was 9.20 ± 4.45%. It also gave an Inhibition % (P38a/MAPK14) of 65.73 ± 0.66% and an Inhibition % (IKKb/IKBKB) of 7.79 ± 0.15%.

From paper PMC6211260 (Journal of Enzyme Inhibition and Medicinal Chemistry, 2018)
